Several values for one entry are separate records, joined by “and”; a condition that tells them apart may be missing. Equal values may be shown once.
Target: T1, MyD88^TIR (Homo sapiens, UniProt Q99836)
T1 construct: MyD88 (residues 148–296); 6xHis; made in house; host or cells: E. coli BL21 (DE3)
Experiment: T‐Surf phage library (P8 and P3) selection against MyD88^TIR, four rounds, NGS read counts
Format: binding
Details: for Population: 4th round of selection against MyD88 TIR, share of NGS reads; for P8_MyD88 Rank (after) / P8_MyD88 Rank (before): P8 library; for P3_MyD88 Rank (after) / P3_MyD88 Rank (before): P3 library
Method in brief: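 Read counts come from NGS of phage pools after the fourth selection round, barcoded by 20-cycle PCR and filtered for quality ≥30. Each round: phage incubated 1 h at RT on immobilised TIR protein (5 µg mL^−1, BSA-blocked), washed, HCl-eluted and amplified in E. coli TG1.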

[1] = P3_MyD88 pool: P3 T-Surf phage library
[2] = selection against MyD88, rank by count after grouping
[3] = selection against MyD88, rank by count before grouping
[4] = P3_MyD88: rank by count after grouping
[5] = P3_MyD88: rank by count before grouping
[6] = 4R selection against MyD88, rank after grouping
[7] = 4R selection against MyD88, rank before grouping
[8] = P8_MyD88: rank by count after grouping
[9] = P8_MyD88: rank by count before grouping
[10] = P8_MyD88 pool: P8 T-Surf phage library
[11] = P8_MyD88: rank by NGS read count after grouping
[12] = P8_MyD88: rank by NGS read count before grouping
[13] = selection against MyD88, rank after grouping
[14] = selection against MyD88, rank before grouping
[15] = selection against MyD88 TIR, rank by count after grouping
[16] = selection against MyD88 TIR, rank by count before grouping

T1 sequence (Q99836 148-296): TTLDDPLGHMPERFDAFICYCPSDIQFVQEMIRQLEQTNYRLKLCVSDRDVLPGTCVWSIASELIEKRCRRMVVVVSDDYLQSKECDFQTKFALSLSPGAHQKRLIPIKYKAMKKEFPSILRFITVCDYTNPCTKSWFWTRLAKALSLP

## NQWRNALTAAANLSGW
[1]
  Population: 0.00437% and 0.00378% and 0.0032%
[2]
  P8_MyD88 Rank (after): 734
[3]
  P8_MyD88 Rank (before): 3881

## SSFREGLWRLLELSKK
[1]
  Population: 0.00466% and 0.00437% and 0.00408% and 0.00378% and 0.00349% and 0.0032% and 0.00291%

## KERPFGAQRAEKCVP
[4]
  Rank (after): 447
[5]
  Rank (before): 3673

## YLRADDLVLGKTAVC
[6]
  P8_MyD88 Rank (after): 643
[7]
  P8_MyD88 Rank (before): 2038

## YAASPWWFYERVEILG
[6]
  P8_MyD88 Rank (after): 612
[7]
  P8_MyD88 Rank (before): 1716

## YATSSWALNELVYLIM
[8]
  Rank (after): 146
[9]
  Rank (before): 162
[10]
  Population: 0.00886%

## SSFLQKLRRRLELSIV
[4]
  Rank (after): 478
[5]
  Rank (before): 3124

## LGYQLIDWEYFVGIEN
[11]
  Rank (after): 937
[12]
  Rank (before): 3319

## NERGHVWSSKANSLVG
[6]
  P3_MyD88 Rank (after): 615
[7]
  P3_MyD88 Rank (before): 3454

## DPQDREWCYERLVSLL
[13]
  P8_MyD88 Rank (after): 516
[14]
  P8_MyD88 Rank (before): 2958

## DSFFWDRLLYILHVTE
[6]
  P8_MyD88 Rank (after): 654
[7]
  P8_MyD88 Rank (before): 3075

## VSSFISYLIAAFNRQG
[8]
  Rank (after): 116
[9]
  Rank (before): 124
[10]
  Population: 0.0173%

## YASRSWYLDELVHIPW
[11]
  Rank (after): 1022
[12]
  Rank (before): 1842

## EWGDPYFWSKLRYAM
[2]
  P3_MyD88 Rank (after): 695
[3]
  P3_MyD88 Rank (before): 2125

## WDFASNMAQVWERLYY
[11]
  Rank (after): 890
[12]
  Rank (before): 1596

## SMMPSSDFWKELALAL
[15]
  P8_MyD88 Rank (after): 217
[16]
  P8_MyD88 Rank (before): 369

## SSFRECLWSLPELSKK
[2]
  P3_MyD88 Rank (after): 699
[3]
  P3_MyD88 Rank (before): 3138

## DWEWDYRLPNLEGPPG
[11]
  Rank (after): 891
[12]
  Rank (before): 2486

## YLKWGYVVLGSSAFC
[2]
  P3_MyD88 Rank (after): 714
[3]
  P3_MyD88 Rank (before): 1574

## NYGSNSWALNELLEIL
[10]
  Population: 0.00848%

## SEKYAKSPWAKVGLVL
[13]
  P3_MyD88 Rank (after): 548
[14]
  P3_MyD88 Rank (before): 3001

## PSEVRNRPAAWRKRL
[15]
  P3_MyD88 Rank (after): 195
[16]
  P3_MyD88 Rank (before): 1127

## IDDDHLTYLVRLLYSL
[6]
  P8_MyD88 Rank (after): 607
[7]
  P8_MyD88 Rank (before): 3631

## DPQDLECFYERRVSLF
[11]
  Rank (after): 916
[12]
  Rank (before): 2845

## YYDSRWALDELLQILHARELF
[15]
  P8_MyD88 Rank (after): 232
[16]
  P8_MyD88 Rank (before): 437

## DHHLDLPRGKAIKREILG
[1]
  Population: 0.00437%

## DPQVRDWFYERAVSLF
[8]
  Rank (after): 452
[9]
  Rank (before): 2660

## DLLLSEFQSIFARRTV
[13]
  P8_MyD88 Rank (after): 531
[14]
  P8_MyD88 Rank (before): 2593

## DHHLALPRGKASKPEHLG
[13]
  P3_MyD88 Rank (after): 525
[14]
  P3_MyD88 Rank (before): 1994

## YAASPWWFDELVRIVC
[8]
  Rank (after): 407
[9]
  Rank (before): 1723

## LNWGDPYFWSKLRYAM
[1]
  Population: 0.00291%

## PQDQEWFYERIVSLP
[2]
  P8_MyD88 Rank (after): 726
[3]
  P8_MyD88 Rank (before): 3492

## DWEWEYLRPNLEGTAG
[2]
  P8_MyD88 Rank (after): 768
[3]
  P8_MyD88 Rank (before): 2488

## SAAYDDIWERLNRMIE
[8]
  Rank (after): 481
[9]
  Rank (before): 3737

## DLLLCVFQTFFARLTE
[11]
  Rank (after): 948
[12]
  Rank (before): 2592
